Assays:
Experiment in all cases: Bliss excess, mean over the matrix (fraction); higher = more synergy
[1] = tested on: C3A (Hepatocellular Carcinoma)
Procedure, shortened: (§1)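 Bliss excess equals the observed combination effect minus the expected value EA + EB − EA·EB, where EA and EB are the effects of each agent alone. Combination Emax is the second-highest inhibition within the matrix. Inhibition was scaled from CellTiter-Glo 2.0 luminescence, with 0 set by vehicle wells and 1 by blank wells, after 72 hours of two-drug dosing of cells plated in 1536-well plates.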

[2] = tested on: COR-L95 (Small Cell Lung Carcinoma)
Procedure, shortened: as §1

IGR-1 (Melanoma) = tested on: IGR-1 (Melanoma)
Procedure, shortened: as §1

[3] = tested on: JiyoyeP-2003 (Burkitt's Lymphoma)
Procedure, shortened: as §1

[4] = tested on: KARPAS-1106P (B-Cell Non-Hodgkin's Lymphoma)
Procedure, shortened: as §1

[5] = tested on: KARPAS-620 (Plasma Cell Myeloma)
Procedure, shortened: as §1

[6] = tested on: KATOIII (Gastric Carcinoma)
Procedure, shortened: as §1

[7] = tested on: LS-513 (Colorectal Carcinoma)
Procedure, shortened: as §1

[8] = tested on: MFH-ino (Other Solid Carcinomas)
Procedure, shortened: as §1

[9] = tested on: NCI-H1299 (Non-Small Cell Lung Carcinoma)
Procedure, shortened: as §1

[10] = tested on: NCI-H1694 (Small Cell Lung Carcinoma)
Procedure, shortened: as §1

[11] = tested on: NCI-H1781 (Lung Adenocarcinoma)
Procedure, shortened: as §1

[12] = tested on: NCI-H1793 (Lung Adenocarcinoma)
Procedure, shortened: as §1

NCI-H2369 (Mesothelioma) = tested on: NCI-H2369 (Mesothelioma)
Procedure, shortened: as §1

NCI-H2595 (Mesothelioma) = tested on: NCI-H2595 (Mesothelioma)
Procedure, shortened: as §1

[13] = tested on: OCI-AML2 (Acute Myeloid Leukemia)
Procedure, shortened: as §1

[14] = tested on: SW1783 (Low Grade Glioma)
Procedure, shortened: as §1

[15] = tested on: SW1990 (Pancreatic Carcinoma)
Procedure, shortened: as §1

[16] = tested on: SW756 (Cervical Carcinoma)
Procedure, shortened: as §1

[17] = tested on: TGBC24TKB (Biliary Tract Carcinoma)
Procedure, shortened: as §1

| Structure (SMILES) | Bliss excess [1] | Bliss excess [2] | Bliss excess (IGR-1 (Melanoma)) | Bliss excess [3] | Bliss excess [4] | Bliss excess [5] | Bliss excess [6] | Bliss excess [7] | Bliss excess [8] | Bliss excess [9] | Bliss excess [10] | Bliss excess [11] | Bliss excess [12] | Bliss excess (NCI-H2369 (Mesothelioma)) | Bliss excess (NCI-H2595 (Mesothelioma)) | Bliss excess [13] | Bliss excess [14] | Bliss excess [15] | Bliss excess [16] | Bliss excess [17] |
| --- | --- | --- | --- | --- | --- | --- | --- | --- | --- | --- | --- | --- | --- | --- | --- | --- | --- | --- | --- | --- |
| CN(C)CCCOc1ccc(-c2ccc3ncc4c(c3c2)n(C2CCOCC2)c(=O)n4C)cn1 [AZD0156] + CCN(CCO)CCCOc1ccc2c(Nc3cc(CC(=O)Nc4cccc(F)c4)[nH]n3)ncnc2c1 [AZD2811] (first compound max 1 µM, 7x7, partner max 1 µM) | -0.0792 | -0.0116 | -0.0235 | 0.0832 | -0.0003 | 0.112 | -0.0366 | -0.0559 | -0.0453 | -0.021 | 0.0516 | 0.0374 | -0.0309 | -0.0392 | -0.0334 | 0.0665 | -0.0452 | -0.0536 | -0.016 | -0.0009 |
| Cc1cc2ncnn2cc1Nc1ncc2c(n1)n(C1CCOCC1)c(=O)n2C [AZD7648] + C[C@@H]1COCCN1C2=NC(=NC(=C2)C3(CC3)[S@](=N)(=O)C)C4=C5C=CNC5=NC=C4 [AZD6738] (first compound max 10 µM, 7x7, partner max 10 µM) | 0.0722 | -0.0029 | 0.0074 | 0.0127 | 0.0183 | -0.0283 | -0.064 | 0.0641 | -0.0002 | 0.0116 | 0.0194 | 0.103 | -0.0059 | 0.008 | -0.0059 | 0.0045 | 0.0913 | 0.0049 | 0.0048 | 0.0117 |
| Cc1c2c(nn1C)CSCc1cc(n(C)n1)CSc1cc(c3ccccc3c1)OCCCc1c(C(=O)O)n(C)c3c-2c(Cl)ccc13 [AZD5991] + CN(C)CCCOc1ccc(-c2ccc3ncc4c(c3c2)n(C2CCOCC2)c(=O)n4C)cn1 [AZD0156] (first compound max 1 µM, 7x7, partner max 1 µM) | -0.0266 | -0.0328 | -0.0219 | -0.0359 | -0.0352 | 0.02 | -0.0068 | -0.0378 | -0.0286 | 0.0163 | 0.0033 | -0.0155 | 0.0332 | 0.0002 | -0.0082 | -0.0647 | -0.0074 | 0.0159 | -0.0015 | -0.0044 |
| C[C@@H]1COCCN1c1cc(C2([S@](C)(=N)=O)CC2)nc(-c2ccnc3[nH]ccc23)n1 [AZD6738] + O=C(c1cc(Cc2n[nH]c(=O)c3ccccc23)ccc1F)N1CCN(C(=O)C2CC2)CC1 [Olaparib] (first compound max 10 µM, 7x7, partner max 10 µM) | -0.0039 | -0.0399 | 0.0059 | 0.0005 | -0.0236 | -0.0168 | -0.0286 | 0.0419 | 0.0189 | -0.0365 | 0.0089 | -0.0218 | -0.0153 | -0.0344 | -0.0073 | 0.0013 | 0.0376 | -0.0071 | -0.0158 | -0.0113 |
| CCc1c2c(nc3ccc(O)cc13)-c1cc3c(c(=O)n1C2)COC(=O)[C@]3(O)CC [SN-38] + CN(C)CCCOc1ccc(-c2ccc3ncc4c(c3c2)n(C2CCOCC2)c(=O)n4C)cn1 [AZD0156] (first compound max 0.3 µM, 7x7, partner max 1 µM) | -0.0646 | -0.0989 | 0.0179 | 0.0406 | -0.0346 | -0.0242 | -0.0305 | -0.0878 | -0.0032 | 0.0495 | -0.0333 | 0.0554 | -0.026 | -0.0001 | -0.0399 | 0.0764 | -0.039 | -0.0091 | -0.0273 | 0.0476 |
| CN(CCO)CC[C@H](CSc1ccccc1)Nc1ccc(S(=O)(=O)NC(=O)c2ccc(N3CCC([C@@H](O)c4ccccc4-c4ccc(Cl)cc4)CC3)cc2)cc1S(=O)(=O)C(F)(F)F [AZD4320] + CN(C)CCCOc1ccc(-c2ccc3ncc4c(c3c2)n(C2CCOCC2)c(=O)n4C)cn1 [AZD0156] (first compound max 1 µM, 7x7, partner max 1 µM) | -0.0281 | 0.0046 | -0.0149 | -0.0211 | -0.0055 | 0.0092 | -0.034 | -0.0391 | -0.059 | -0.0462 | 0.0791 | -0.0694 | -0.027 | -0.036 | -0.0348 | -0.0296 | -0.0298 | -0.0411 | -0.0362 | 0.0025 |
| CC(=O)c1c(C)c2cnc(Nc3ccc(N4CCNCC4)cn3)nc2n(C2CCCC2)c1=O [Palbociclib] + CN(CC[C@H](CSC1=CC=CC=C1)NC2=C(C=C(C=C2)S(=O)(=O)NC(=O)C3=CC=C(C=C3)N4CCC(CC4)[C@H](C5=CC=CC=C5C6=CC=C(C=C6)Cl)O)S(=O)(=O)C(F)(F)F)CCO [AZD4320] (first compound max 10 µM, 7x7, partner max 1 µM) | -0.0358 |  | -0.0387 | -0.0053 |  |  |  |  |  |  | 0.0632 | -0.0811 | -0.0299 | -0.0408 |  |  |  |  | -0.0883 | -0.0727 |

— the supplement of paper PMC11061612
